Reference: PubChem BioAssay (NCI)
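Each compound was tested at five concentrations against cells in 96-well plates for 48 hours. Here, GI50 denotes the concentration required for 50% inhibition of growth. At the TGI there is no net growth.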

How the values were obtained:
Assay in all cases: inhibition of tumour cell growth, NCI panel, 48 h
CAKI-1 renal = system: CAKI-1 renal
COLO 205 colon = system: COLO 205 colon
HOP-92 NSCLC = system: HOP-92 NSCLC
K-562 leukemia = system: K-562 leukemia
NCI-H23 lung = system: NCI-H23 lung
SK-OV-3 ovarian = system: SK-OV-3 ovarian
SNB-19 CNS = system: SNB-19 CNS
SW-620 colon = system: SW-620 colon
U251 CNS = system: U251 CNS
SR leukemia = system: SR leukemia
T-47D breast = system: T-47D breast

Structure (SMILES) | TGI (CAKI-1 renal) | TGI (COLO 205 colon) | TGI (HOP-92 NSCLC) | TGI (K-562 leukemia) | TGI (NCI-H23 lung) | TGI (SK-OV-3 ovarian) | TGI (SNB-19 CNS) | TGI (SW-620 colon) | TGI (U251 CNS) | TGI (SR leukemia) | TGI (T-47D breast) | GI50 (U251 CNS)
CC(C)Oc1c(-c2ccc(F)cc2)c(O)c2c3c1oc(=O)n3C=CC2C (stereo not given) | 27.5 µM | 32.2 µM | 28 µM | 39.6 µM | 24.6 µM | > 100 µM | 31.9 µM | 28.5 µM | 30.3 µM |  |  | 
CCN(CC)c1oc(N(CC)CC)c(C(=O)Nc2ccccn2)c(=O)c1C(C)=O | > 100 µM | > 100 µM | > 100 µM | > 100 µM | > 100 µM | > 100 µM | > 100 µM | > 100 µM | > 100 µM | > 100 µM |  | 
COc1ccc2nc3cc(Cl)ccc3c(SCC(=O)Nc3ccccc3-c3ccccc3NC(=O)CSc3c4ccc(Cl)cc4nc4ccc(OC)cc34)c2c1 | > 100 µM | > 100 µM | > 100 µM | > 100 µM | > 100 µM | > 100 µM | > 100 µM | > 100 µM | > 100 µM |  |  | 
COc1ccc(-c2oc3c(OC)c(OC)cc(O)c3c(=O)c2OC)cc1 | > 100 µM | > 100 µM | > 100 µM | > 100 µM | > 100 µM | > 100 µM | > 100 µM | > 100 µM | > 100 µM |  | > 100 µM | 
CCOc1ccc(NC(=O)C(=O)C(C(=O)c2ccc3ccccc3c2)C2OC(=O)c3ccccc32)cc1 (stereo not given) | > 100 µM | 41.7 µM | 68.3 µM | > 100 µM | 33 µM | > 100 µM | > 100 µM | 92.6 µM | 24.4 µM |  |  | 
Cc1ccc(N(C)S(=O)(=O)c2ccccc2[N+](=O)[O-])cc1 | > 100 µM | > 100 µM |  |  | > 100 µM |  | > 100 µM | > 100 µM | > 100 µM | > 100 µM | > 100 µM | 
Cc1cnc2[nH]c(-c3ccc4ccccc4c3)cc(=O)c2c1 |  | 18.6 µM |  |  |  | > 100 µM | > 100 µM | > 100 µM | > 100 µM |  | > 100 µM | 0.464 µM
O=c1cc(-c2cccnc2)[nH]c2cc3c(cc12)OCO3 |  | > 100 µM | > 100 µM | > 100 µM | > 53.5 µM | > 67 µM | 79.6 µM | > 100 µM | 30.8 µM |  | > 100 µM | 
CC1(C)N=C(C2CCCN2C(=O)OCc2ccccc2)OC1=O (stereo not given) | > 100 µM | > 100 µM |  | > 100 µM | > 100 µM | > 100 µM | > 100 µM | > 100 µM | > 100 µM |  |  | 
NC(=O)NC12CC3CC(CC(F)(C3)C1)C2 |  | > 100 µM | > 100 µM | > 100 µM | > 100 µM | > 100 µM | > 100 µM | > 100 µM | > 100 µM |  |  | 
N#Cc1c(-c2ccccc2)c(CN2CCCCC2)c(=O)n2c1[nH]c1ccccc12 | > 100 µM | 64 µM |  | 60.9 µM | > 100 µM | > 100 µM | > 100 µM | > 100 µM | > 100 µM |  | > 100 µM | 
CC(Oc1ccc(OCC2CCCCC2)cc1)C(=O)NCc1ccco1 (stereo not given) |  |  |  | > 100 µM |  | > 100 µM | > 100 µM |  | > 100 µM |  |  | 
Cn1cc(-c2csc(-c3cn(C)c4ccccc34)n2)c2ccccc21 | > 100 µM | > 100 µM | 94.5 µM | 31.9 µM | > 100 µM |  | > 100 µM | > 100 µM | > 100 µM |  | 89.6 µM | 
CC[C@@]1(O)C(=O)OCc2c1cc1n(c2=O)Cc2c-1nc1ccccc1c2/C=N/NC(=O)c1ccc(N)cc1 | 5.06 µM | > 100 µM |  | > 31.6 µM | 1.48 µM | > 100 µM | > 100 µM | > 100 µM | 7.63 µM |  | 0.389 µM | 
Cc1cc(S(=O)(=O)/N=C(\[N-]S(=O)(=O)c2cc(Cl)sc2Cl)[n+]2ccc(N(C)C)cc2)c(S)cc1Cl | > 100 µM |  |  | > 100 µM | > 100 µM | > 100 µM |  | > 100 µM | > 100 µM | 98.2 µM | > 100 µM | 
Nc1nc(-c2ccco2)cc(-c2ccc(CO)o2)n1 |  | > 100 µM |  | > 100 µM | > 100 µM |  | > 100 µM | > 100 µM |  | > 100 µM |  | 
COc1cccc(NC(=O)CC(=O)N2N=C(n3ccc4ccccc43)CC2c2ccccc2)c1 (stereo not given) |  | > 100 µM | > 100 µM | > 100 µM | > 100 µM | > 100 µM | > 100 µM | > 100 µM | > 100 µM |  |  | 
COC1=C(C)C(=O)c2c(cc3c(c2O)C(C)(CCC=C(C)C)C(C)O3)C1=O (stereo not given) | > 100 µM | > 100 µM | > 100 µM | > 100 µM | 68.5 µM | > 100 µM | 34.5 µM | > 100 µM | > 100 µM | > 100 µM |  | 
